In brackets after ≈: the same amount, converted by molar mass. Several values for one entry are separate records, joined by “and”; a condition that tells them apart may be missing. Identical values can stand only once. Like-named read-outs stand apart in the source and are kept apart here.
Experiments:
Pharmacokinetics of BHBM [1] = format: in vivo, mice
Description: The mice from each group were sacrificed and blood samples were collected at pre-dose and 0.5, 1, 2, 4, 8, 12, and 24 post-administration into K2EDTA containing tubes. The samples were centrifuged immediately and plasma was collected and stored at −80° C. until analysis. Plasma samples were extracted using methylene chloride. […] After mixing, 1 ml of methylene chloride was added and the samples were vortex mixed for 30 seconds followed by centrifugation for 5 minutes. […] The residue was reconstituted in 100 μL acetonitrile: water (50:50) solution, mixed and transferred to mass spec vials. […] The mobile phase consisted of water: acetonitrile with 0.1% formic acid (50:50) ran at a flow rate of 200 μL/min. Aliquots of 5 μL were analyzed using LTQ-FT liquid chromatography/tandem mass spectrometer (LC/MS/MS) with electrospray source in the positive ion mode (ThermoFisher Scientific, Waltham, Mass.). The retention time of BHBM was 5.7 mins. The lower limit of quantification (LLOQ) was 10 ng/ml. Systemic exposure of BHBM in mice was quantified by calculating the AUC of the drug from pre-dose to the end of the dosing interval (AUC0-t) using the linear trapezoidal rule by non-compartmental analysis employing Phoenix winNonlin 6.3 (Pharsight Corp, Mountain View, Calif.). The elimination half-life (t1/2) was calculated as 0.693/λz, where λz is the terminal elimination rate constant. Bioavailability of IP route was calculated.

Cryptococcus gattii = assay: In vitro susceptibility testing (MIC); format: cell-based
E. coli DH5α = assay: Antibacterial activity, LB agar well diffusion; conditions: up to 160 μg/mL, 30° C., 24 hr
Cryptococcus neoformans = assay: In vitro susceptibility testing (MIC); format: cell-based
[2] = test system: C. albicans secreted vesicles; assay: Vesicle secretion measured by vesicular sterols; format: cell-based, Candida albicans
Description: (§1) WF, white field; NBD-Cer, NBD-ceramide.

[3] = test system: synthesis of GlcCer in mammalian (J774) cells; assay: In vivo labeling with 3H palmitate, TLC of GlcCer; format: cell-based, murine; conditions: 3H palmitate labeling
[4] = In vivo toxicity in uninfected mice
Candida glabrata = assay: In vitro susceptibility testing (MIC); format: cell-based
[5] = test system: synthesis of GlcCer in C. neoformans cells; assay: In vivo labeling with 3H palmitate, TLC of GlcCer; conditions: 3H palmitate labeling
Smt1 = assay: In vitro Smt1 activity; format: biochemical, C. neoformans
Pneumocystis murina = assay: In vitro testing by ATP content (luciferin-luciferase); conditions: for inhibition at 0.1 µg/mL / inhibition at 1 µg/mL / inhibition at 10 µg/mL / inhibition at 100 µg/mL: read-out: percentage inhibition of ATP
Candida guilliermondii = assay: In vitro susceptibility testing (MIC); format: cell-based
[6] = test system: C. neoformans secreted vesicles; assay: Vesicle secretion measured by vesicular sterols; format: cell-based, Cryptococcus neoformans
Description: as §1

Pharmacokinetics of BHBM [7] = format: in vivo, mice; conditions: preliminary studies
Candida albicans SC-5314 = assay: Animal studies for candidiasis (intravenous infection); format: in vivo, mice
Description: For survival studies, 8-week old CBA/J female mice (Jackson Laboratory) were used. Eight mice per treatment or control group were used. Mice were infected by intravenous inoculation of 100 μL containing 1×10^5 cells of Candida albicans SC-5314 strain. […] Untreated mice, received 100 μL of PBS/0.4% DMSO. Mice were feed ad-libitum and monitored closely for sign of discomfort. At the end of the survival study, tissue burden culture was performed in mice that survived the infection. Mice were sacrificed and their organs were extracted and homogenized in 10 ml sterile PBS using homogenizer. Organ homogenates were diluted 10 times in PBS, and 100 μL was plated on YPD agar plates and incubated at 30° C. for 72 hours for CFU count.

P. aeruginosa PA14 = assay: Antibacterial activity, LB agar well diffusion; conditions: up to 160 μg/mL, 30° C., 24 hr
Sld8 = assay: In vitro Sld8 activity; format: biochemical, C. neoformans
Blastomyces dermatitis = assay: In vitro susceptibility testing (MIC); format: cell-based; conditions: for BHBM 96 Hr 50%: MIC, FTL strains
[8] = C3H/HeN, mouse, in vivo, ip, 0.8 mg/kg
[9] = C3H/HeN, mouse, in vivo, ip, 1.6 mg/kg

## Cc1ccccc1C(=O)NN=Cc1ccc(O)c(Br)c1 [BHBM, N′-(3-bromo-4-hydroxybenzylidene)-2-methylbenzohydrazide]
Pharmacokinetics of BHBM [1]; [8]
  bioavailability: 93.6%
  half-life: 0.79 h
Pharmacokinetics of BHBM [1]; [9]
  bioavailability: 100.33%
  half-life: 0.84 h
Pharmacokinetics of BHBM [1]; C3H/HeN, mouse, in vivo, iv, 1.6 mg/kg
  half-life: 1.24 h
Pharmacokinetics of BHBM [1]; C3H/HeN, mouse, plasma, 0.8 mg/kg, immunocompetent mice, IP low dose, read-out: bioavailability
  bioavailability: 93.6%
Pharmacokinetics of BHBM [1]; C3H/HeN, mouse, plasma, intraperitoneal, 1.6 mg/kg
  half-life: ~1.4 h
Pharmacokinetics of BHBM [1]; IP administration, compared to normal group
  systemic exposure (AUC0-t and Cmax): higher in immunosuppressed/infected group
Pharmacokinetics of BHBM [1]; immunocompetent mice, IP high dose
  bioavailability: 90.59%
Pharmacokinetics of BHBM [1]; immunocompetent mice, IP high dose (1.6 mg/kg)
  half-life: 1.43 h
Pharmacokinetics of BHBM [1]; immunocompetent mice, IP low dose (0.8 mg/kg)
  half-life: 1.70 h
Pharmacokinetics of BHBM [1]; immunocompetent mice, IV high dose (1.6 mg/kg)
  half-life: 1.03 h
Cryptococcus gattii
  in vitro activity: good in vitro activity
Cryptococcus gattii; 3 MDP Lab strains
  MIC range: 0.5 to 1 µg/mL
Cryptococcus gattii; 10 Fungus Testing Lab strains
  MIC range: 0.5 to 2 µg/mL
Cryptococcus gattii; MIC, FTL strains
  BHBM 72 Hr 50%: 16 and >16 and 8
E. coli DH5α
  zone of inhibition: No zone of inhibition
Cryptococcus neoformans
  in vitro activity: good in vitro activity
Cryptococcus neoformans; 4 MDP Lab strains, clinical isolates resistant to fluconazole
  MIC range: 1 to 2 µg/mL
Cryptococcus neoformans; 8 MDP Lab strains, clinical isolates sensitive to fluconazole
  MIC range: 0.5 to 2 µg/mL
Cryptococcus neoformans; 13 Fungus Testing Lab strains
  MIC range: 0.25 to 8 µg/mL
Cryptococcus neoformans; Cryptococcus neoformans, read-out: MFC (minimum fungicidal concentration)
  MFC: 4 µg/mL (≈ 12 µM)
Cryptococcus neoformans; MIC, FTL strains
  BHBM 72 Hr 50%: 8 and >16 and 16
Cryptococcus neoformans; all Fluconazole-resistant C. neoformans strains
  sensitivity of Fluconazole-resistant strains: sensitive
[2]
  secreted vesicles measured by sterol content: marked reductions of secreted vesicles
[3]
  inhibition of the synthesis of GlcCer: no significant changes
[3]; listed as #5271226
  inhibition of the synthesis of GlcCer: not in mammalian (J774) cells
[4]; 1.2 mg/kg/day intraperitoneally for 60 days
  liver Aspartate aminotransferase (AST): 125±75 U/L
[4]; 60 days
  other blood parameters for liver and kidney function: normal
[4]; lungs, brains, kidney, spleen, liver, 60 days
  histological analysis of organs vs untreated uninfected mice: no difference
[4]; treated daily for 60 days
  appearance, weight, physical activity and behavior: appeared normal
Candida glabrata; 10 Fungus Testing Lab strains
  MIC range: 0.125 to 2 µg/mL
Candida glabrata; Nakaseomyces glabratus, read-out: MIC (moderately active)
  MIC: 8 to 16 µg/mL (≈ 24 to 48 µM)
[5]
  inhibition of the synthesis of GlcCer: significantly inhibit the synthesis of GlcCer
Smt1
  in vitro activity of Smt1: does not inhibit
Pneumocystis murina; 24 h, read-out: IC50, P. murina
  IC50: 1.02 µg/mL (≈ 3.06 µM)
Pneumocystis murina; 24 h
  inhibition at 0.1 µg/mL: 6.64%
  inhibition at 1 µg/mL: 66.2%
  inhibition at 10 µg/mL: 88.2%
  inhibition at 100 µg/mL: 97%
Pneumocystis murina; 48 h, read-out: IC50, P. murina
  IC50: < 0.01 µg/mL
Pneumocystis murina; 48 h
  inhibition at 0.1 µg/mL: 76%
  inhibition at 1 µg/mL: 87.6%
  inhibition at 10 µg/mL: 94.6%
  inhibition at 100 µg/mL: 98.9%
Pneumocystis murina; 72 h, read-out: IC50, P. murina
  IC50: < 0.01 µg/mL
Pneumocystis murina; 72 h
  inhibition at 0.1 µg/mL: 63.8%
  inhibition at 1 µg/mL: 74.6%
  inhibition at 10 µg/mL: 93.6%
  inhibition at 100 µg/mL: 99.4%
Pneumocystis murina; 96 h, read-out: IC50, P. murina
  IC50: 2.02 µg/mL (≈ 6.06 µM)
Pneumocystis murina; 96 h
  inhibition at 0.1 µg/mL: 16.6%
  inhibition at 1 µg/mL: 44.5%
  inhibition at 10 µg/mL: 66.7%
  inhibition at 100 µg/mL: 91.5%
Pneumocystis murina; read-out: activity class by IC50, P. murina
  IC50: < 0.01 µg/mL
Candida guilliermondii; MIC, FTL strains
  BHBM 24 Hr 50%: >16
  BHBM 48 Hr 50%: >16
Candida guilliermondii; Meyerozyma guilliermondii, read-out: MIC (moderately active)
  MIC: 8 to 16 µg/mL (≈ 24 to 48 µM)
[6]
  secreted vesicles measured by sterol content: marked reductions of secreted vesicles
Pharmacokinetics of BHBM [7]
  tissue distribution, brain: found in the brain tissue
Candida albicans SC-5314; 1.2 mg/kg/day intraperitoneally, after 21 days of infection
  mice alive: 62.5%
Candida albicans SC-5314; day 21, surviving treated mice
  clearance of infection (tissue burden): able to clear C. albicans infection
P. aeruginosa PA14
  zone of inhibition: No zone of inhibition
Sld8
  in vitro activity of Sld8: does not inhibit
Blastomyces dermatitis
  in vitro activity: good in vitro activity
  BHBM 96 Hr 50%: 1 and 2
Blastomyces dermatitis; 10 Fungus Testing Lab strains
  MIC range: 0.5 to 1 µg/mL
Blastomyces dermatitis; first listing r7-r78
  BHBM 96 Hr 50%: 1 and 0.5

Reference: patent US11390580B2, “Anti-fungals targeting the synthesis of fungal shingolipids” (THE RESEARCH FOUNDATION FOR THE STATE UNIVERSITY OF NEW YORK, priority 2014, dated 2022)
